Laboratory results from ChEMBL document CHEMBL5316339, “Discovery of a Series of Substituted 1H-((1,2,3-Triazol-4-yl)methoxy)pyrimidines as Brain Penetrants and Potent GluN2B-Selective Negative Allosteric Modulators” (J Med Chem, 2023).
≈ marks a conversion by molar mass, not a printed value.

Columns and labels:
MDR1 (P-gp) = assay: Efflux ratio of apparent permeability from basolateral to apical side over apical to basolateral side in MDCK-MDR1 cells at 5 uM incubated for 60 mins by LC-MS/MS analysis; type: ADME, cell-based, Canis lupus familiaris; conditions: dog
[1] = molecular target: Glutamate receptor ionotropic, NMDA 2C (Homo sapiens, UniProt Q05586+Q14957); assay: Inhibition of human GluN2C receptor by FLIPR assay
[2] = molecular target: Glutamate receptor ionotropic, NMDA 2B (Rattus norvegicus, UniProt Q00960); assay: Displacement of 3-(3H) 1-(azetidin-1-yl)-2-(6- (4-fluoro-3-methyl-phenyl)pyrrolo-[…] pyridin-1yl)ethanone from GluN2B receptor in rat cortical membrane assessed as inhibition constant incubated for 2 hrs under shaking condition by liquid scintillator counter analysis; type: cell membranes, Cortex
[3] = Drug concentration in Sprague-Dawley rat brain at 10 mg/kg, po measured after 2 hrs; type: ADME, organism-based; conditions: read-out: Ct
[4] = Drug concentration in Sprague-Dawley rat plasma at 10 mg/kg, po measured after 2 hrs; type: ADME, organism-based
[5] = molecular target: Voltage-gated inwardly rectifying potassium channel KCNH2 (Homo sapiens, UniProt Q12809); assay: Displacement of [3H]dofetilide from human ERG expressed in HEK293 cells; type: toxicity, cell-based
[6] = Oral bioavailability in Sprague-Dawley rat at 5 mg/kg measured for 24 hrs by LC-MS/MS analysis; type: ADME, organism-based; conditions: in vivo
[7] = Drug concentration in Sprague-Dawley rat brain at 10 mg/kg, po measured after 0.5 hrs; type: ADME, organism-based; conditions: read-out: Ct
Cytochrome P450 3A4 = Cytochrome P450 3A4 (Homo sapiens, UniProt P08684); assay: Inhibition of CYP3A4 in human liver microsomes incubated for 10 mins by LC-MS/MS analysis; type: ADME, Microsome
[8] = Thermodynamic solubility in aqueous phosphate buffer at pH 2; type: physicochemical; conditions: read-out: Therm_solubility
[9] = molecular target: Glutamate receptor ionotropic, NMDA 2D (Homo sapiens, UniProt O15399+Q05586); assay: Inhibition of human GluN2D receptor by FLIPR assay
[10] = Cmax in Sprague-Dawley rat at 5 mg/kg, po measured for 24 hrs by LC-MS/MS analysis; type: ADME, organism-based; set-up: time 24 hrs, dose 5 mg/kg, route po; conditions: in vivo
Cytochrome P450 2D6 = Cytochrome P450 2D6 (Homo sapiens, UniProt P10635); assay: Inhibition of CYP2D6 in human liver microsomes incubated for 10 mins by LC-MS/MS analysis; type: ADME, Microsome
[11] = Metabolic stability in rat liver microsomes assessed as extraction ratio; type: ADME, Microsome; conditions: read-out: ERH
[12] = Unbound brain to plasma concentration ratio in Sprague-Dawley rat at 10 mg/kg, po measured after 0.5 hrs; type: ADME, organism-based; conditions: brain and plasma, read-out: K(p,uu,brain)
[13] = Thermodynamic solubility in aqueous phosphate buffer at pH 7; type: physicochemical; conditions: read-out: Therm_solubility
Cytochrome P450 2C19 = Cytochrome P450 2C19 (Homo sapiens, UniProt P33261); assay: Inhibition of CYP2C19 in human liver microsomes incubated for 10 mins by LC-MS/MS analysis; type: ADME, Microsome
Cytochrome P450 2C9 = Cytochrome P450 2C9 (Homo sapiens, UniProt P11712); assay: Inhibition of CYP2C9 in human liver microsomes incubated for 10 mins by LC-MS/MS analysis; type: ADME, Microsome
Brain [14] = assay: Ex vivo receptor occupancy at GluN2B receptor in Sprague-Dawley rat brain at 10 mg/kg, po measured after 0.5 hrs by 3 [3H] 1-(azetidin- 1-yl-2[6-(4-fluoro-3-methyl-pheny)pyrrolo[3,2-b]pyridin-1-yl]ethanon based autoradiography relative to control; type: functional
[15] = Volume of distribution at steady state in Sprague-Dawley rat at 5 mg/kg, po or 1 mg/kg, iv measured for 24 hrs by LC-MS/MS analysis; type: ADME, organism-based; conditions: in vivo
Brain [16] = assay: Ex vivo receptor occupancy at GluN2B receptor in Sprague-Dawley rat brain at 10 mg/kg, po measured after 6 hrs by 3 [3H] 1-(azetidin- 1-yl-2[6-(4-fluoro-3-methyl-pheny)pyrrolo[3,2-b]pyridin-1-yl]ethanon based autoradiography relative to control; type: functional
Cytochrome P450 2C8 = molecular target: T1, Cytochrome P450 2C8 (Homo sapiens, UniProt P10632); assay: Inhibition of CYP2C8 in human liver microsomes incubated for 10 mins by LC-MS/MS analysis; type: ADME, Microsome
T1 sequence (P10632 whole entry): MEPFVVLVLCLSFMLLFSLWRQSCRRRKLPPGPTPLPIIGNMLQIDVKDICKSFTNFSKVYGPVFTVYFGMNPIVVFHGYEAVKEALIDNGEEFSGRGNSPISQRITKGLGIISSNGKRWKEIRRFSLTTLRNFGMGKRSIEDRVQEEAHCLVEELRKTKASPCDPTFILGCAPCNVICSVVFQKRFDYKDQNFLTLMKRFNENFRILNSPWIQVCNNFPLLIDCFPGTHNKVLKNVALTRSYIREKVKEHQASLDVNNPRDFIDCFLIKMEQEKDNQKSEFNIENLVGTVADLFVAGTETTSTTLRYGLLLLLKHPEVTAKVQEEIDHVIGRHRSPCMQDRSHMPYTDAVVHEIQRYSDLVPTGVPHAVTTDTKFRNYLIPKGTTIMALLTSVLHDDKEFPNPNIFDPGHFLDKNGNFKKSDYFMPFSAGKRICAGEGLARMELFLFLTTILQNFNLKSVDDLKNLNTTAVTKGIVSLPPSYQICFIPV

[17] = Drug concentration in Sprague-Dawley rat plasma at 10 mg/kg, po measured after 0.5 hrs; type: ADME, organism-based
Hippocampus [18] = assay: Ex vivo receptor occupancy at GluN2B receptor in Sprague-Dawley rat hippocampus administered orally and measured after 0.5 hrs by 3-[3H] 1-(azetidin- 1-yl-2[6-(4-fluoro-3-methyl-pheny)pyrrolo[3,2-b]pyridin-1-yl]ethanon based autoradiography; type: functional; conditions: route po
[19] = molecular target: Glutamate receptor ionotropic, NMDA 2A (Homo sapiens, UniProt Q05586+Q12879); assay: Inhibition of human GluN2A receptor by FLIPR assay
[20] = Plasma protein binding in Sprague-Dawley rat assessed as free fraction; type: ADME, cell-free
[21] = Unbound brain to plasma concentration ratio in Sprague-Dawley rat at 10 mg/kg, po measured after 2 hrs; type: ADME, organism-based; conditions: brain and plasma, read-out: K(p,uu,brain)
[22] = Metabolic stability in human liver microsomes assessed as extraction ratio; type: ADME, Microsome; conditions: read-out: ERH
[23] = Drug concentration in Sprague-Dawley rat plasma at 10 mg/kg, po measured after 6 hrs; type: ADME, organism-based
Brain [24] = assay: Ex vivo receptor occupancy at GluN2B receptor in Sprague-Dawley rat brain at 10 mg/kg, po measured after 2 hrs by 3 [3H] 1-(azetidin- 1-yl-2[6-(4-fluoro-3-methyl-pheny)pyrrolo[3,2-b]pyridin-1-yl]ethanon based autoradiography relative to control; type: functional
[25] = Drug concentration in Sprague-Dawley rat brain assessed as free fraction; type: ADME, tissue-based
Cytochrome P450 1A2 = molecular target: T2, Cytochrome P450 1A2 (Homo sapiens, UniProt P05177); assay: Inhibition of CYP1A2 in human liver microsomes incubated for 10 mins by LC-MS/MS analysis; type: ADME, Microsome
T2 sequence (P05177 whole entry): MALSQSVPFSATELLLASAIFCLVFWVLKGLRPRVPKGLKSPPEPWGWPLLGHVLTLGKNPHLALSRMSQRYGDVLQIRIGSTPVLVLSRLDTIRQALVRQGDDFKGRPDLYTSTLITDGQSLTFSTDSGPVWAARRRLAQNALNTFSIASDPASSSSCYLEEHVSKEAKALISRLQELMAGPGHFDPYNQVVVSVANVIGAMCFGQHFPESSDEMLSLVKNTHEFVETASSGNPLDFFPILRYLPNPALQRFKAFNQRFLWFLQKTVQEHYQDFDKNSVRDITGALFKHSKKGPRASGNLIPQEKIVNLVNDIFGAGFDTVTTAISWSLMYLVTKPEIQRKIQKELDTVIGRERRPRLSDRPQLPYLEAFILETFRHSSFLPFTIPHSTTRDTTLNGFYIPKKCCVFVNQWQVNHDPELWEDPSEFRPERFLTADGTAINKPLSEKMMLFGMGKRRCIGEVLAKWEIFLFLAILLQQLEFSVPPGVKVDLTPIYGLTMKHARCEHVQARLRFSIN

[26] = Drug metabolism in human liver microsomes assessed as O-dearylation mediated (1-(4-chloro-3-(difluoromethoxy)phenyl)-1H-1,2,3-triazol-4-yl)methanol metabolite formation at 0.1 uM in presence of NADPH; type: ADME, Microsome
[27] = Drug concentration in Sprague-Dawley rat plasma at 10 mg/kg, po measured after 0.25 hrs; type: ADME, organism-based
[28] = Unbound brain to plasma concentration ratio in Sprague-Dawley rat at 10 mg/kg, po measured after 0.25 hrs; type: ADME, organism-based; conditions: brain and plasma, read-out: K(p,uu,brain)
[29] = molecular target: Glutamate NMDA receptor; GRIN1/GRIN2B (Homo sapiens, UniProt Q05586+Q13224); assay: Negative allosteric modulation of human GluN1A/GluN2B receptor expressed in T-REX-CHO cells preincubated for 5 mins followed by glutamate and glycine addition and measured after 5 mins by FLIPR assay; type: cell-based
[30] = Drug concentration in Sprague-Dawley rat brain at 10 mg/kg, po measured after 0.25 hrs; type: ADME, organism-based; conditions: read-out: Ct
[31] = Drug metabolism in rat liver microsomes at 0.014 to 0.37 uM incubated for 60 mins; type: ADME, Microsome; conditions: 1 h, dose 0.014-0.37 µM
Brain [32] = assay: Ex vivo receptor occupancy at GluN2B receptor in Sprague-Dawley rat brain at 10 mg/kg, po measured after 0.25 hrs by 3 [3H] 1-(azetidin- 1-yl-2[6-(4-fluoro-3-methyl-pheny)pyrrolo[3,2-b]pyridin-1-yl]ethanon based autoradiography relative to control; type: functional
Hippocampus [33] = assay: Ex vivo receptor occupancy at GluN2B receptor in Sprague-Dawley rat brain hippocampus at 0.01 to 3 mg/kg, po measured after 2 hrs by 3 [3H] 1-(azetidin- 1-yl-2[6-(4-fluoro-3-methyl-pheny)pyrrolo[3,2-b]pyridin-1-yl]ethanon based autoradiography relative to control; type: functional; conditions: dose 0.01-3 mg/kg
[34] = Drug metabolism in rat hepatocytes at 0.01 to 0.1 uM incubated for 4 hrs; type: ADME, cell-based, Hepatocyte; conditions: dose 0.01-0.1 µM
[35] = Drug metabolism in human liver microsomes assessed as O-dearylation mediated 1-(4-chloro-3-(difluoromethoxy)phenyl)-1H-1,2,3-triazole-4-carboxylic acid metabolite formation at 0.1 uM in presence of NADPH; type: ADME, Microsome

Cytochrome P450 2D6, sequence (P10635 whole entry): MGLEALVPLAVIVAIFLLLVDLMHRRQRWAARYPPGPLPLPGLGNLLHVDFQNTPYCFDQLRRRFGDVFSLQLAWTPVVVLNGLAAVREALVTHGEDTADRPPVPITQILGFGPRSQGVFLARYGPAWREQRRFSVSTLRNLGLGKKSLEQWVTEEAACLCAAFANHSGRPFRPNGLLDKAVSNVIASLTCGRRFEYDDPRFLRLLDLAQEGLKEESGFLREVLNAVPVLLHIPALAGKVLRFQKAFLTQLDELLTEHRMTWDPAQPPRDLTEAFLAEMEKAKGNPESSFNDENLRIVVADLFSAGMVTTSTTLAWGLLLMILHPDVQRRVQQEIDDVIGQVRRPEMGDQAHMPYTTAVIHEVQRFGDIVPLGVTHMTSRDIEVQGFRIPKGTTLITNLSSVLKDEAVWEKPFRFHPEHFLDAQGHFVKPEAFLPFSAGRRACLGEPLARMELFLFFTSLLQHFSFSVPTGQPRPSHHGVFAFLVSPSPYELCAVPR
Voltage-gated inwardly rectifying potassium channel KCNH2, sequence (Q12809 whole entry): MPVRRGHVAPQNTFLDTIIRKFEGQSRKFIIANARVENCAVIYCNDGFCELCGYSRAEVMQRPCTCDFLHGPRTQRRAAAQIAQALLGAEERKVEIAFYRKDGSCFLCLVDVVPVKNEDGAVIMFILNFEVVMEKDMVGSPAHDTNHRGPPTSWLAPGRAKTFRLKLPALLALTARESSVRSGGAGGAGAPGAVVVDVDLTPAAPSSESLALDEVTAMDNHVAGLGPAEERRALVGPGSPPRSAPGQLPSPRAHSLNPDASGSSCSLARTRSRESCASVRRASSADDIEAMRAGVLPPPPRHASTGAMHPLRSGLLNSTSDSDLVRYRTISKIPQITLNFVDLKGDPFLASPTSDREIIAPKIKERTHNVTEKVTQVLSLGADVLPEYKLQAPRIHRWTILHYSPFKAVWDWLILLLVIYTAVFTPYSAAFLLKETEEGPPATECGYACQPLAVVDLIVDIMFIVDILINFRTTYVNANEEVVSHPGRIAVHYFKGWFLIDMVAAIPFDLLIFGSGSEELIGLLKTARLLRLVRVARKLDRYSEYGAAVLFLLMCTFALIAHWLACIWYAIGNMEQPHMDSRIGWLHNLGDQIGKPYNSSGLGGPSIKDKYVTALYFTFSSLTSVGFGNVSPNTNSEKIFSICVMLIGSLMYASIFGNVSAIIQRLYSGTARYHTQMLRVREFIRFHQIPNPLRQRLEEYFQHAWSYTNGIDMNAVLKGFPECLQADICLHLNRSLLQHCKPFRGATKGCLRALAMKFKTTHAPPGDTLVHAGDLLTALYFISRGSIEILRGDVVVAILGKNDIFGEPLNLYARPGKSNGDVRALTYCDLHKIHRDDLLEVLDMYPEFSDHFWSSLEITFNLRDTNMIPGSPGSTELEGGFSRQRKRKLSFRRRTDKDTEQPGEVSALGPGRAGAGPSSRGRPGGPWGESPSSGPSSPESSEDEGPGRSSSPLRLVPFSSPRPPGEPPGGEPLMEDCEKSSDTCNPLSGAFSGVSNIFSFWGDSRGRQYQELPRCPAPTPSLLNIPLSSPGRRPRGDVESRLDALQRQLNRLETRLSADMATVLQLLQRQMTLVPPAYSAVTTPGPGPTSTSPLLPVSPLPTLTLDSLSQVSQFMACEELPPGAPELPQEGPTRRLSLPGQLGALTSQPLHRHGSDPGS
Glutamate receptor ionotropic, NMDA 2B, sequence (Q00960 whole entry): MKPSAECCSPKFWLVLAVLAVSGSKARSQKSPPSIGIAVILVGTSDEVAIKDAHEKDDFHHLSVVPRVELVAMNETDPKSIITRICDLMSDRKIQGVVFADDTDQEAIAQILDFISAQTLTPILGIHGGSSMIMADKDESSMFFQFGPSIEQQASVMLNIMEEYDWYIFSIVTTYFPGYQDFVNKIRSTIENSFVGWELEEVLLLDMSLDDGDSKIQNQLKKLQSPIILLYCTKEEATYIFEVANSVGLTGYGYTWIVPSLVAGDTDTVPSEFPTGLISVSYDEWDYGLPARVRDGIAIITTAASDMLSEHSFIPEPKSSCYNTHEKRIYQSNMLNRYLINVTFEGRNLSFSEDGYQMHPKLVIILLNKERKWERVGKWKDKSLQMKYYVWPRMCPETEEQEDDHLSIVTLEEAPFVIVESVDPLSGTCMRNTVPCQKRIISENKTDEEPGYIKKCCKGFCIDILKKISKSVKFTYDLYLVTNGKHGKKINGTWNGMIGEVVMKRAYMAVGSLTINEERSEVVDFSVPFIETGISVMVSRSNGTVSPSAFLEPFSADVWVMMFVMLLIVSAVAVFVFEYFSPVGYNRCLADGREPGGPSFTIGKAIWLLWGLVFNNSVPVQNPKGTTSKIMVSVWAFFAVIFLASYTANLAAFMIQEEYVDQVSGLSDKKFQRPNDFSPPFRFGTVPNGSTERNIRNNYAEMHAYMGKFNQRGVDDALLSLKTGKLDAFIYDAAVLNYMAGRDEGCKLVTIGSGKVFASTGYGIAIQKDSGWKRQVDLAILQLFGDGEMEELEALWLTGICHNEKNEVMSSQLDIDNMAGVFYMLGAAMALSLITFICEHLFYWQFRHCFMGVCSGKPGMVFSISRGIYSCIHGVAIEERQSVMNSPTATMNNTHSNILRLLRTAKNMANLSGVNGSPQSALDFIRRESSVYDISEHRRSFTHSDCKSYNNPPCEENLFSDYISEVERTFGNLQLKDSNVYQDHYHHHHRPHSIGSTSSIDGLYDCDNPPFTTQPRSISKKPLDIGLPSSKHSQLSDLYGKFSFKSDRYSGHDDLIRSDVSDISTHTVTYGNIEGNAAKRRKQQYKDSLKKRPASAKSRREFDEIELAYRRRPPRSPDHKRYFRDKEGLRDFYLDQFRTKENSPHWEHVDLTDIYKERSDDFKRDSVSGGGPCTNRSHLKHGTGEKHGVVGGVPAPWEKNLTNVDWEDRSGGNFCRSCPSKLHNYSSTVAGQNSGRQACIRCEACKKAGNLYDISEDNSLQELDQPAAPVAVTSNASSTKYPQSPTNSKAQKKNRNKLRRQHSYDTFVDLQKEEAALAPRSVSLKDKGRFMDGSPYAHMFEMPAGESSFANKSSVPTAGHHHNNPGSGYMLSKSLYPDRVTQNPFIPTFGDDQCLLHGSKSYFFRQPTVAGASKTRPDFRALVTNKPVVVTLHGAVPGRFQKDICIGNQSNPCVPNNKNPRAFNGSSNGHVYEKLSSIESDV
Cytochrome P450 2C19, sequence (P33261 whole entry): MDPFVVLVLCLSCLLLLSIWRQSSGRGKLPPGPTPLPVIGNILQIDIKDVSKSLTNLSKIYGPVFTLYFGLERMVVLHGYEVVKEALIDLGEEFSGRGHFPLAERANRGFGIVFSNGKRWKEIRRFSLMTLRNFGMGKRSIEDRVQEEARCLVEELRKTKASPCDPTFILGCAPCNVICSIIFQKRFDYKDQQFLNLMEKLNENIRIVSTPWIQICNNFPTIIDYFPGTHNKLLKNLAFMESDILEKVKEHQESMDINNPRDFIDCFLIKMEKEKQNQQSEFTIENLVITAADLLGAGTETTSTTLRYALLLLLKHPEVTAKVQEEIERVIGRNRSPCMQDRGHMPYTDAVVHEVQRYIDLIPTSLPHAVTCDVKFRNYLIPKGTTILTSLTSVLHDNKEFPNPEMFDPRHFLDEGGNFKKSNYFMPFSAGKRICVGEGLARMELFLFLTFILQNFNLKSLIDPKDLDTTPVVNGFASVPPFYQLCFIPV
Cytochrome P450 2C9, sequence (P11712 whole entry): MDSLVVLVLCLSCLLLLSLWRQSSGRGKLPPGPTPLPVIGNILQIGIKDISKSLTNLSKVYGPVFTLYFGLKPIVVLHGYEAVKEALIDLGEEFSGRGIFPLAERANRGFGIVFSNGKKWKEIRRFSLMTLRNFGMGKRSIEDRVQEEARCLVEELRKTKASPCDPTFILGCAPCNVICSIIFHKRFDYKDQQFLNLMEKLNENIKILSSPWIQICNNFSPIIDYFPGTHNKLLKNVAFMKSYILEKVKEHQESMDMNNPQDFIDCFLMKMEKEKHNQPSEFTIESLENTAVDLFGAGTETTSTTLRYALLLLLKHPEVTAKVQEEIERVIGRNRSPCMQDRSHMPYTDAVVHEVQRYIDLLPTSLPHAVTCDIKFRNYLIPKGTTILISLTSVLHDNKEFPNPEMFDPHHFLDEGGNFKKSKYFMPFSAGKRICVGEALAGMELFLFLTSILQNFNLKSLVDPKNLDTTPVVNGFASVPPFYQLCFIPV
Cytochrome P450 3A4, sequence (P08684 whole entry): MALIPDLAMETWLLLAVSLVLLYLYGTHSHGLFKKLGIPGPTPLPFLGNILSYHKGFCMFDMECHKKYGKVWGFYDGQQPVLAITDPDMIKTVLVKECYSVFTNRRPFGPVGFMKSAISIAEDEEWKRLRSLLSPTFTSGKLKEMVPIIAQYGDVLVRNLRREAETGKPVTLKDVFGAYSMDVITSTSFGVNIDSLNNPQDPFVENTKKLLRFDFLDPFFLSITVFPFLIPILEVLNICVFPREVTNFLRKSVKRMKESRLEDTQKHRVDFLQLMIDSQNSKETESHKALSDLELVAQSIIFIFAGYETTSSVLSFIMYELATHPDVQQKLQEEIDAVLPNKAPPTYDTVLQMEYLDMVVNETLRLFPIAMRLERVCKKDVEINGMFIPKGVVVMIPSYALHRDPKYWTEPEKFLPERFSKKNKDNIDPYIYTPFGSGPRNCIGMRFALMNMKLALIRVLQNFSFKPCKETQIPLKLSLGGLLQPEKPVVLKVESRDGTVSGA

COCc1ccnc(OCc2cn(-c3ccc(F)c(OC(F)F)c3)nn2)n1
efflux ratio at 1 h, 5 µM (MDR1 (P-gp)): 1.1
IC50 [1]: > 10 µM
Ki [2]: 0.032 µM
concentration at 2 h [3]: 47 ng/g
concentration at 2 h [4]: 235 ng/mL
IC50 [5]: > 10 µM
bioavailability [6]: 42%
concentration at 0.5 h [7]: 340 ng/g
IC50 (Cytochrome P450 3A4): > 10 µM
solubility thermodynamic [8]: 280 µM (≈ 107 µg/mL)
IC50 [9]: > 10 µM
Cmax [10]: 1630 ng/mL
IC50 (Cytochrome P450 2D6): > 10 µM
hepatic extraction ratio [11]: 0.6
Kp uu at 0.5 h [12]: 0.65
solubility thermodynamic [13]: 260 µM (≈ 99.1 µg/mL)
IC50 (Cytochrome P450 2C19): > 10 µM
IC50 (Cytochrome P450 2C9): > 10 µM
Occ (Brain [14]): 77%
Vdss [15]: 0.4 L/kg
Occ (Brain [16]): 8%
IC50 (Cytochrome P450 2C8): > 10 µM
concentration at 0.5 h [17]: 1980 ng/mL
ED50 (Hippocampus [18]): 1.7 mg/kg
IC50 [19]: > 10 µM
fraction unbound [20]: 0.0236
Kp uu at 2 h [21]: 0.76
hepatic extraction ratio [22]: 0.47
concentration at 6 h [23]: 6.7 ng/mL
Occ (Brain [24]): 54%
fraction unbound [25]: 0.0882
IC50 (Cytochrome P450 1A2): > 10 µM

FC(F)Oc1cc(-n2cc(COc3ncccn3)nn2)ccc1Cl
efflux ratio at 1 h, 5 µM (MDR1 (P-gp)): 1
IC50 [1]: > 10 µM
Ki [2]: 0.094 µM
concentration at 2 h [3]: 3010 ng/g
Drug metabolism [26]: Metabolite_Detected
concentration at 2 h [4]: 8650 ng/mL
IC50 [5]: > 10 µM
bioavailability [6]: 78%
concentration at 0.25 h [27]: 3040 ng/mL
concentration at 0.5 h [7]: 1920 ng/g
IC50 [9]: > 10 µM
Cmax [10]: 808 ng/mL
IC50 (Cytochrome P450 2D6): > 10 µM
Kp uu at 0.5 h [12]: 0.78
Kp uu at 0.25 h [28]: 0.91
IC50 (Cytochrome P450 2C19): > 10 µM
IC50 (Cytochrome P450 2C9): > 10 µM
Occ (Brain [14]): 92%
Vdss [15]: 0.51 L/kg
IC50 (Cytochrome P450 2C8): > 10 µM
concentration at 0.5 h [17]: 5120 ng/mL
IC50 [29]: 0.011 µM
concentration at 0.25 h [30]: 1290 ng/g
IC50 [19]: > 10 µM
fraction unbound [20]: 0.024
Kp uu at 2 h [21]: 0.72
Drug metabolism [31]: Metabolite_Detected
Occ (Brain [24]): 85%
fraction unbound [25]: 0.051
Occ (Brain [32]): 71%
Occ (Hippocampus [33]): <10%
IC50 (Cytochrome P450 1A2): > 10 µM
Drug metabolism [34]: Metabolite_Detected
Drug metabolism [35]: Metabolite_Detected
